According to patent US12473293B2, “Pharmacologically active heterocyclic-substituted pyrazolo[1,5-a]pyrimidine derivatives” (Richter Gedeon Nyrt., priority 2020, dated 2025):

Target: T1, GABAB receptor (Rattus norvegicus, UniProt O88871+Q9Z0U4)
T1 construct: from tissue; host or cells: rat brain cortex membranes
Experiment: In vitro [35S]GTPγS binding assay in rat cortical membranes
Format: biochemical
Conditions: PAM EC50, [35S]GTPγS binding, read-out: In vitro PAM potency
Description: In Vitro [^35S]GTPγS Binding Assay in Rat Cortical Membranes
Cortices of freshly harvested rat brains were dissected on an ice-cold surface and homogenized by a glass Dounce homogeniser immediately in ice-cold buffer containing 50 mM Tris, 5 mM MgCl2 and 1 mM EDTA (pH=7.6). Tissue homogenates were centrifuged at 40000 g for 15 min at 4° C. Membrane pellets were resuspended in the same buffer and membranes were incubated for 10 min at 30° C. in a shaking water bath to eliminate endogenous GABA. Homogenates were centrifuged again under the same conditions. The final pellets were resuspended in ice-cold buffer (pH=7.6) containing 50 mM Tris, 100 mM NaCl, 7 mM MgCl2, 1 mM EDTA and 1 mM dithiotreithol (DTT) to yield a concentration of 20 mg tissue weight/ml and frozen at −70° C. until use. The assay was done in a buffer containing 50 mM Tris (pH=7.4), 100 mM NaCl, 7 mM MgCl2, 1 mM EDTA and 1 mM DTT. Each assay tube contained 150 μL GDP (in a final concentration of 50 μM), 100 μL ligand and 125 μL of the membrane suspension ([…]). The assay tubes were preincubated for 10 min at 30° C. to assure equilibrium. Nonspecific binding was determined in the presence of 10 μM GTPγS; basal binding was determined in the presence of buffer only. After addition of […] [^35S]GTPγS in a volume of 25 μL to the tubes, membranes were incubated for an additional 60 min at 30° C. The assay was terminated by rapid filtration through Packard UniFilter GF/B using a Packard harvester and washed four times with 1 ml ice-cold buffer. After drying the filters at 40° C. for 1 h, 40 μL Microscint (Packard) was added to the filters and radioactivity of the filters was determined by a TopCount NXT (PerkinElmer, Waltham, MA; Alper and Nelson, Eur. J. Pharmacol. 1998, 343, 303-312; Rinken et al, Biochem. Pharmacol. 1999, 57, 155-162). Data thus gathered were used to determine PAM EC50 values for each compound as primary in vitro activity end point.
In Table 1 compounds of this invention measured in the [^35S]GTPγS binding assay are listed.

T1 sequence (O88871 41-940): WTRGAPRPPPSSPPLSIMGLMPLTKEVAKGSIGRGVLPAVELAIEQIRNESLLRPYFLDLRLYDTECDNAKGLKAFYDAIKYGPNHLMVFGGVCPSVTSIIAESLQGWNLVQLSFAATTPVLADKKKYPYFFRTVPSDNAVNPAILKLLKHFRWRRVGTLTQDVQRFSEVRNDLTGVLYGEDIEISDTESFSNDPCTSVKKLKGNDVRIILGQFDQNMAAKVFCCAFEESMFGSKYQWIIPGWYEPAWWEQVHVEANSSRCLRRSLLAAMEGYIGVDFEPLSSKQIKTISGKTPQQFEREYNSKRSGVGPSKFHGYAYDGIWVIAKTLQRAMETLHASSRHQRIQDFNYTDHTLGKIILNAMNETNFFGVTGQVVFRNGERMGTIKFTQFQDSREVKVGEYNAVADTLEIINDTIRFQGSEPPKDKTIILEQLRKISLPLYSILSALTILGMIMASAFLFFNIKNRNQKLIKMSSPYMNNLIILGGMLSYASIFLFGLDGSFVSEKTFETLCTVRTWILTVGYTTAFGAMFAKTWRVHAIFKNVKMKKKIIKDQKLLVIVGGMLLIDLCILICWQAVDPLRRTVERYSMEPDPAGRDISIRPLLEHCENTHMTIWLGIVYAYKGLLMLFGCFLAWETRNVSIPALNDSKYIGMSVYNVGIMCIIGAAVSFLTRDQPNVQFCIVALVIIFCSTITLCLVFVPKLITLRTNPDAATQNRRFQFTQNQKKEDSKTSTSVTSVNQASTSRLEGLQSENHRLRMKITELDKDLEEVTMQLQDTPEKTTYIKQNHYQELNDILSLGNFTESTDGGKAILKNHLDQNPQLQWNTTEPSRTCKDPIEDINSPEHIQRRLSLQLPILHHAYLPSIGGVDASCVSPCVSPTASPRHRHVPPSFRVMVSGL
T1 sequence (Q9Z0U4 17-960 limits assumed): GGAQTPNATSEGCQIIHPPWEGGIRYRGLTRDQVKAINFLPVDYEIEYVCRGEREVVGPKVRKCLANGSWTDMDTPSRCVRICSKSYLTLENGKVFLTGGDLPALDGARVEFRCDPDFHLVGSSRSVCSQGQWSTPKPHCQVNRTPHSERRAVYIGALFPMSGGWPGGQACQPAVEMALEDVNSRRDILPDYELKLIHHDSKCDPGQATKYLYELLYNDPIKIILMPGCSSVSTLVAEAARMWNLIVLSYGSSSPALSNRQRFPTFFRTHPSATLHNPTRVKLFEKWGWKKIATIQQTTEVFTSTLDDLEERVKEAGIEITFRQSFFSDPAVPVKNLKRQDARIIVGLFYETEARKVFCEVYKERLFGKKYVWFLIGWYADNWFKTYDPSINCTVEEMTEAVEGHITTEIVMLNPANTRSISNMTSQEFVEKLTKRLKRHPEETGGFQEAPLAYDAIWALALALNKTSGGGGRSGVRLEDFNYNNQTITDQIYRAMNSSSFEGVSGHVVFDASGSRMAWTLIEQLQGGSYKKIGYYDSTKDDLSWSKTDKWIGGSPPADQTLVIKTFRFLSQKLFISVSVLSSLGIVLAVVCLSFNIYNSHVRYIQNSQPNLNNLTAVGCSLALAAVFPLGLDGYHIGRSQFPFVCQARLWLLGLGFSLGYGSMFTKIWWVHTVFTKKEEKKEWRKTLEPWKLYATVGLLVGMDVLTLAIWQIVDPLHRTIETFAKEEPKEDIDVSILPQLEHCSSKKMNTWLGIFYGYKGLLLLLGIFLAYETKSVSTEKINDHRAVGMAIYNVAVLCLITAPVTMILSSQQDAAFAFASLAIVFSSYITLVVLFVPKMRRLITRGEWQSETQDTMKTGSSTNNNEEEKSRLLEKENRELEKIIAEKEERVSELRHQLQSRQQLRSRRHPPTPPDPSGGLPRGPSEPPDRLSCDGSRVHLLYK

SMILES | EC50 [nM]
Cc1cc([C@@H]2CN(C=O)C(C)(C)CO2)n2nc([C@H]3CC[C@H](C(F)(F)F)CC3)cc2n1 (single isomer, unassigned) [Example 10] | 1000 to 10000
Cc1nc2cc([C@H]3CC[C@H](C(F)(F)F)CC3)nn2c([C@]2(C)CCCN(CC(F)(F)F)C2)c1C [Example 48] | 100 to 1000
Cc1cc([C@@H]2CCCN(C3CCOC3)C2)n2nc([C@H]3CC[C@H](C(F)(F)F)CC3)cc2n1 (stereo partly drawn) [Example 63] | 100 to 1000
Cc1cc([C@H]2CN(C(=O)c3cncs3)CCO2)n2nc([C@H]3CC[C@H](C(F)(F)F)CC3)cc2n1 [Example 118] | 100 to 1000
Cc1cc([C@H]2CCCN(C=O)[C@@H]2C)n2nc([C@H]3CC[C@H](C(F)(F)F)CC3)cc2n1 [Example 89] | 100 to 1000
Cc1cc([C@H]2CN(C(=O)c3cscn3)CCO2)n2nc([C@H]3CC[C@H](C(F)(F)F)CC3)cc2n1 [Example 121] | 100 to 1000
Cc1cc([C@@H]2CN(C(=O)N(C)C)CC[C@@H]2C)n2nc([C@H]3CC[C@H](C(F)(F)F)CC3)c(F)c2n1 (racemic) [Example 46] | 100 to 1000
Cc1cc([C@@H]2CN(C(=O)CN)CC[C@H]2C)n2nc([C@H]3CC[C@H](C(F)(F)F)CC3)cc2n1 [Example 53] | 1000 to 10000
Cc1cc([C@@H]2CN(C=O)[C@@H](C)CO2)n2nc([C@H]3CC[C@H](C(F)(F)F)CC3)cc2n1 [Example 98] | 1000 to 10000
CC(=O)N1CCOC(c2c(C)c(C)nc3cc([C@H]4CC[C@H](C(F)(F)F)CC4)nn23)C1 (stereo partly drawn) [Example 70] | 100 to 1000
Cc1cc([C@H]2CN(S(C)(=O)=O)CCO2)n2nc([C@H]3CC[C@H](C(F)(F)F)CC3)cc2n1 [Example 119] | 100 to 1000
Cc1cc([C@@H]2CN(S(C)(=O)=O)CC[C@@H]2C)n2nc([C@H]3CC[C@H](C(F)(F)F)CC3)cc2n1 (racemic) [Example 85] | 100 to 1000
Cc1cc([C@H]2CN(C=O)[C@H](C)CO2)n2nc([C@H]3CC[C@H](C(F)(F)F)CC3)cc2n1 [Example 108] | 100 to 1000
COC(=O)N1CC[C@H](C)[C@H](c2c(C)c(C)nc3cc([C@H]4CC[C@H](C(F)(F)F)CC4)nn23)C1 [Example 77] | < 100
CC(=O)N1CCC[C@@](C)(c2cc(C)nc3cc([C@H]4CC[C@H](C(F)(F)F)CC4)nn23)C1 [Example 41] | < 100
CC(=O)N1CCO[C@@H](c2cc(C)nc3cc([C@H]4CC[C@H](C(F)(F)F)CC4)nn23)C1 [Example 109] | 100 to 1000
Cc1nc2cc([C@H]3CC[C@H](C(F)(F)F)CC3)nn2c([C@@H]2CCCN(C(=O)[C@@H](N)CO)C2)c1C [Example 21, (2S)-2-amino-1-[(3R)-3-{5,6-dimethyl-2-[trans-4-(trifluoromethyl)cyclohexyl]pyrazolo[1,5-a]pyrimidin-7-yl}piperidin-1-yl]-3-hydroxypropan-1-one] | 1000 to 10000
Cc1cc([C@@H]2CN(C=O)CC[C@@H]2C)n2nc([C@H]3CC[C@H](C(F)(F)F)CC3)cc2n1 (single isomer, unassigned) [Example 8] | 1000 to 10000
CCc1c(C)nc2cc([C@H]3CC[C@H](C(F)(F)F)CC3)nn2c1[C@@]1(C)CCCN(C(C)=O)C1 [Example 35] | < 100
COC(=O)N1C[C@@H](c2cc(C)nc3cc([C@H]4CC[C@H](C(F)(F)F)CC4)nn23)O[C@@H](C)C1 [Example 124] | ≥ 10000
CC(=O)N1CCC[C@@H](c2c(C)c(C)nc3cc([C@H]4CC[C@H](C(F)(F)F)CC4)nn23)C1 [Example 33] | 100 to 1000

SMILES | EC50 [nM]
Cc1cc([C@@H]2CCCN(C(C)C)C2)n2nc([C@H]3CC[C@H](C(F)(F)F)CC3)cc2n1 [Example 24, (3R)-3-{5-methyl-2-[trans-4-(trifluoromethyl)cyclohexyl]pyrazolo[1,5-a]pyrimidin-7-yl}-1-(propan-2-yl)piperidine] | 1000 to 10000
Cc1cc(C2CN(C3COC3)CCC2(C)C)n2nc([C@H]3CC[C@H](C(F)(F)F)CC3)cc2n1 (stereo partly drawn) [Example 60] | 100 to 1000
COC(=O)N1CCSC(c2cc(C)nc3cc([C@H]4CC[C@H](C(F)(F)F)CC4)nn23)C1 (stereo partly drawn) [Example 126, methyl 2-{5-methyl-2-[trans-4-(trifluoromethyl)cyclohexyl]pyrazolo[1,5-a]pyrimidin-7-yl}thiomorpholine-4-carboxylate] | 100 to 1000
CC(=O)N1CCC(C)C(c2cc(C)nc3c(F)c(C4CCC(C(F)(F)F)CC4)nn23)C1 (single isomer, unassigned) [Example 2] | 100 to 1000
COC(=O)N1C[C@@H](c2cc(C)nc3cc([C@H]4CC[C@H](C(F)(F)F)CC4)nn23)OC[C@H]1C [Example 110] | 1000 to 10000
Cc1cc(C2OCCN(C)C2=O)n2nc([C@H]3CC[C@H](C(F)(F)F)CC3)cc2n1 (stereo partly drawn) [Example 30, 4-methyl-2-{5-methyl-2-[trans-4-(trifluoromethyl)cyclohexyl]pyrazolo[1,5-a]pyrimidin-7-yl}morpholin-3-one] | 1000 to 10000
Cc1cc([C@H]2CN(S(N)(=O)=O)CCO2)n2nc([C@H]3CC[C@H](C(F)(F)F)CC3)cc2n1 [Example 25, (2R)-2-{5-methyl-2-[trans-4-(trifluoromethyl)cyclohexyl]pyrazolo[1,5-a]pyrimidin-7-yl}morpholine-4-sulfonamide] | < 100
Cc1cc([C@]2(C)CCCN(S(N)(=O)=O)C2)n2nc([C@H]3CC[C@H](C(F)(F)F)CC3)cc2n1 [Example 71] | 1000 to 10000
COC(=O)N1CC[C@@H](C)[C@H](c2cc(C)nc3c(F)c([C@H]4CC[C@H](C(F)(F)F)CC4)nn23)C1 [Example 128] | 1000 to 10000
CCc1c(C)nc2cc([C@H]3CC[C@H](C(F)(F)F)CC3)nn2c1[C@]1(C)CCCN(C(C)=O)C1 [Example 34] | < 100
CCC1CCN(C(=O)OC)CC1c1cc(C)nc2cc([C@H]3CC[C@H](C(F)(F)F)CC3)nn12 (stereo partly drawn) [Example 67] | 100 to 1000
COC(=O)N1CCOC(C)(c2cc(C)nc3cc([C@H]4CC[C@H](C(F)(F)F)CC4)nn23)C1 (stereo partly drawn) [Example 73] | 1000 to 10000
COC(=O)N1C[C@H](c2cc(C)nc3cc([C@H]4CC[C@H](C(F)(F)F)CC4)nn23)OC[C@H]1C [Example 106] | 100 to 1000
Cc1cc(C2CN(C)CCC2(C)C)n2nc([C@H]3CC[C@H](C(F)(F)F)CC3)cc2n1 (stereo partly drawn) [Example 61] | 100 to 1000
COCCOC(=O)N1CCO[C@@H](c2cc(C)nc3cc([C@H]4CC[C@H](C(F)(F)F)CC4)nn23)C1 [Example 100] | 100 to 1000
COC(=O)N1CCC[C@H](c2cc(C)nc3cc([C@H]4CC[C@H](C(F)(F)F)CC4)nn23)[C@H]1C (racemic) [Example 92] | < 100
Cc1cc(C2(C)CN(C=O)CC(F)(F)C2)n2nc([C@H]3CC[C@H](C(F)(F)F)CC3)cc2n1 (stereo partly drawn) [Example 78] | 100 to 1000
COC(=O)N1CC[C@H](C)[C@@H](c2cc(C)nc3cc([C@H]4CC[C@H](C(F)(F)F)CC4)nn23)C1 (single isomer, unassigned) [Example 4] | 100 to 1000
COC(=O)N1C[C@@H](c2cc(C)nc3cc([C@H]4CC[C@H](C(F)(F)F)CC4)nn23)OCC1(C)C (single isomer, unassigned) [Example 12] | 1000 to 10000
COC(=O)N1CC[C@H](C)[C@@H](c2cc(C)nc3c(F)c([C@H]4CC[C@H](C(F)(F)F)CC4)nn23)C1 [Example 129] | 100 to 1000
COC(=O)N1CC(c2c(C)c(C)nc3cc([C@H]4CC[C@H](C(F)(F)F)CC4)nn23)CC(F)(F)C1 (stereo partly drawn) [Example 74] | 100 to 1000
